Measurements published in US11472778B2, “Hepatitis C virus NS3/4A protease inhibitors” (priority 2017, dated 2022).
Where two headings read alike, the source gives them in different places.

What was measured:
[1] = rcm bond, 15-membered ring, Zhan 1b, 1,2-DCE
[2] = test system: HCV replicon D168V variant in Huh7 cells; assay: microbe, parasite or virus in culture; format: cell-based, Hepatitis C virus
How it was run: (§1)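 Huh7 cells electroporated with replicon RNA and exposed to rising concentrations of protease inhibitor, with replication read as luciferase signal at 96 h. Reporter is a genotype 1b Con1 backbone containing genotype 1a H77 NS3, with mutants introduced by site-directed mutagenesis.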

[3] = test system: HCV replicon A156T variant in Huh7 cells; assay: microbe, parasite or virus in culture; format: cell-based, Hepatitis C virus; details: for EC50: Hepatitis C virus
How it was run: as §1

[4] = test system: HCV replicon R155K variant in Huh7 cells; assay: microbe, parasite or virus in culture; format: cell-based, Hepatitis C virus; details: for EC50: Hepatitis C virus
How it was run: as §1

[5] = test system: HCV replicon D168A variant in Huh7 cells; assay: microbe, parasite or virus in culture; format: cell-based, Hepatitis C virus; details: for EC50: Hepatitis C virus
How it was run: as §1

[6] = target: GT1a R155K NS3/4A protease (UniProt P27958, R1181K, species not given); format: biochemical, Hepatitis C virus
Experimental: (§2) For each assay, 2 nM of NS3/4A protease (GT1a, R155K and D168A) was pre-incubated at room temperature for 1 h with increasing concentration of inhibitors in assay buffer (50 mM Tris, 5% glycerol, 10 mM DTT, 0.6 mM LDAO, and 4% dimethyl sulfoxide, pH 7.5). Inhibition assays were performed in non-binding surface 96-well black half-area plates (Corning) in a reaction volume of 60 μL. […] Three independent data sets were collected for each inhibitor with each protease construct. […] Gibbs free energy of binding was calculated using the following equation: ΔG=RTlnKi

[7] = target: GT1a R155K NS3/4A protease; format: biochemical, Hepatitis C virus; details: fold change in Ki, R155K relative to WT
Experimental: as §2

[8] = target: T1, wild-type GT1a NS3/4A protease (UniProt P27958); format: biochemical, Hepatitis C virus
T1 construct: Ki WT; other: wild-type HCV NS3/4A protease
How it was run: (§3)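 Enzyme (GT1a wild type or D168A mutant, 2 nM) was preincubated with inhibitor dilutions for 1 h at room temperature in pH 7.5 Tris buffer with glycerol, DTT, LDAO and 4% DMSO.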

[9] = target: T2, GT1a D168A NS3/4A protease (UniProt P27958, D1194A, species not given); format: biochemical, Hepatitis C virus
T2 construct: rows headed: Ki (nM) D168A; Ki D168A; other: D168A variant
How it was run: as §3

[10] = target: GT1a D168A NS3/4A protease; format: biochemical, Hepatitis C virus; details: for Ki (Fold change) GT1a D168A NS3/4A Protease: Table 3, Ki D168A relative to GT1a WT
How it was run: as §3

[11] = test system: wild-type HCV replicon in Huh7 cells; assay: Cell-based drug susceptibility (replicon) assay, wild-type; details: Hepatitis C virus, read-out: Replicon EC50 (nM) WT
How it was run: as §1

[12] = target: T3, GT1a D168A NS3/4A protease (UniProt P27958, C1185S/D1194A, species not given); format: biochemical, Hepatitis C virus; details: read-out: Ki (nM) GT1a D168A NS3/4A Protease
T3 construct: Ki (nM) GT1a D168A NS3/4A Protease
How it was run: as §3

[13] = target: T4, wild-type GT1a NS3/4A protease (UniProt P27958, C1185S, species not given); format: biochemical, Hepatitis C virus; details: read-out: Ki (nM) GT1a WT NS3/4A Protease
T4 construct: Ki (nM) GT1a WT NS3/4A Protease
How it was run: as §3

[14] = Hepatitis C virus, Huh-7, 96 h, read-out: Replicon EC50 (nM) D168V, Table 2, Huh7 cells, luciferase 96 h
[15] = Hepatitis C virus, Huh-7, read-out: Replicon EC50 (nM) D168V, Table 4
[16] = Table 4, relative to WT replicon
[17] = Huh-7, 96 h, read-out: Replicon EC50 (nM) A156T, Table 2, Huh7 cells, luciferase 96 h
[18] = Huh-7, read-out: Replicon EC50 (nM) A156T, Table 4
[19] = Huh-7, 96 h, read-out: Replicon EC50 (nM) R155K, Table 2, Huh7 cells, luciferase 96 h
[20] = Huh-7, read-out: Replicon EC50 (nM) R155K, Table 4
[21] = Huh-7, 96 h, read-out: Replicon EC50 (nM) D168A, Table 2, Huh7 cells, luciferase 96 h
[22] = Huh-7, read-out: Replicon EC50 (nM) D168A, Table 4
[23] = Huh-7, 96 h, Table 2, Huh7 cells, luciferase 96 h

Compound: CCOC(=O)[C@@]12C[C@H]1/C=C\CCCCC[C@H](NC(=O)OC(C)(C)C)C(=O)N1C[C@H](Oc3nc4cc(OC)ccc4nc3C(F)(F)F)C[C@H]1C(=O)N2
- ring closure, isolated yield ([1]; from C=CCCCCC[C@H](NC(=O)OC(C)(C)C)C(=O)N1C[C@H](Oc2nc3cc(OC)ccc3nc2C(F)(F)F)C[C@H]1C(=O)N[C@]1(C(=O)OCC)C[C@H]1C=C, 6.7 mM, 70.0 °C, 5.0 h): 70%

Compound: C=C[C@@H]1C[C@]1(NC(=O)[C@@H]1C[C@@H](Oc2nc3cc(OC)ccc3nc2Cl)CN1C(=O)[C@@H](NC(=O)OC1CCCC1)C(C)(C)C)C(=O)NS(=O)(=O)C1(C)CC1 [Compound 12d, Cyclopentyl ((S)-1-((2S,4R)-4-((3-chloro-7-methoxyquinoxalin-2-yl)oxy)-2-(((1R,2S)-1-(((1-methylcyclopropyl)sulfonyl)carbamoyl)-2-vinylcyclopropyl)carbamoyl)pyrrolidin-1-yl)-3,3-dimethyl-1-oxobutan-2-yl)carbamate]
- EC50 ([2]; Hepatitis C virus, Huh-7, read-out: Replicon EC50 (nM) D168V, Table 9): 12 to 38 nM
- Replicon EC50 (Fold change) D168V ([2]; Table 9, relative to WT): (7.4) fold
- EC50 ([2]; read-out: Replicon EC50 (nM) D168V, Table 9): 23 nM
- EC50 ([3]; Huh-7, read-out: Replicon EC50 (nM) A156T, Table 9): 163 nM
- Replicon EC50 (Fold change) A156T ([3]; Table 9, relative to WT): (53) fold
- EC50 ([4]; Huh-7, read-out: Replicon EC50 (nM) R155K, Table 9): 27 nM
- Replicon EC50 (Fold change) R155K ([4]; Table 9, relative to WT): (8.7) fold
- Replicon EC50 (Fold change) D168A ([5]; Table 9, relative to WT): (8.1) fold
- Ki ([6]; read-out: Ki (nM) R155K, Table 8, linear inhibitors): 5.2 ± 0.8 nM
- Ki ([6]; read-out: Ki R155K, R155K variant): 5.2 ± 0.8 nM
- Ki R155K (fold change) [7]: 1.3
- Ki ([8]; read-out: Ki (nM) WT, Table 8, linear inhibitors): 3.9 nM
- Ki ([8]; read-out: Ki WT, wild-type HCV NS3/4A protease): 3.9 ± 0.7 nM
- Ki ([9]; read-out: Ki (nM) D168A, Table 8, linear inhibitors): 51 ± 6 nM
- Ki ([9]; read-out: Ki D168A, D168A variant): 51 ± 6 nM
- Ki D168A (fold change) ([10]; fold change in Ki, D168A relative to WT): 13
- EC50 ([11]; Huh-7, Table 9): 3.1 nM

Compound: CC(C)(C)OC(=O)N[C@H]1CCCCC/C=C\[C@@H]2C[C@@]2(C(=O)NS(=O)(=O)C2CC2)NC(=O)[C@@H]2C[C@@H](Oc3nc4ccccc4nc3-c3cccs3)CN2C1=O [Compound 18f, tert-Butyl ((2R,6S,13aS,14aR,16aS,Z)-14a-((cyclopropylsulfonyl)carbamoyl)-5,16-dioxo-2-((3-(thiophen-2-yl)quinoxalin-2-yl)oxy)-1,2,3,5,6,7,8,9,10,11,13a,14,14a,15,16,16a-hexadecahydrocyclopropa[e]pyrrolo[1,2-a][1,4]diazacyclopentadecin-6-yl)carbamate, reference compound]
- EC50 [2, 14]: 193 nM
- EC50 [2, 15]: 193 nM
- Replicon EC50 (Fold change) D168V [2, 16]: (197) fold
- EC50 [3, 17]: 256 nM
- EC50 [3, 18]: 256 nM
- Replicon EC50 (Fold change) A156T [3, 16]: (261) fold
- EC50 [4, 19]: 21.7 nM
- EC50 [4, 20]: 21.7 nM
- Replicon EC50 (Fold change) R155K [4, 16]: (22) fold
- EC50 [5, 21]: 111 nM
- EC50 [5, 22]: 111 nM
- Replicon EC50 (Fold change) D168A [5, 16]: (113) fold
- Ki ([12]; Table 1): 1820 nM
- Ki ([12]; Table 3): 1820 ± 347 nM
- Ki ([13]; Table 1): 1.03 nM
- Ki ([13]; Table 3): 1.03 nM
- ring closure, isolated yield ([1]; from C=CCCCCC[C@H](NC(=O)OC(C)(C)C)C(=O)N1C[C@H](Oc2nc3ccccc3nc2-c2cccs2)C[C@H]1C(=O)N[C@]1(C(=O)NS(=O)(=O)C2CC2)C[C@H]1C=C, 3.5 mM, 70.0 °C): 61%
- ring closure, isolated yield ([1]; 3.5 mM): 61%
- EC50 [11, 23]: 0.98 nM
- EC50 ([11]; Huh-7, Table 4): 0.98 nM

Compound: CCc1nc2ccccc2nc1O[C@@H]1C[C@H]2C(=O)N[C@]3(C(=O)NS(=O)(=O)C4CC4)C[C@H]3/C=C\CCCCC[C@H](NC(=O)OC(C)(C)C)C(=O)N2C1 [Compound 18g, tert-Butyl ((2R,6S,13aS,14aR,16aS,Z)-14a-((cyclopropylsulfonyl)carbamoyl)-2-((3-ethylquinoxalin-2-yl)oxy)-5,16-dioxo-1,2,3,5,6,7,8,9,10,11,13a,14,14a,15,16,16a-hexadecahydrocyclopropa[e]pyrrolo[1,2-a][1,4]diazacyclopentadecin-6-yl)carbamate]
- EC50 [2, 14]: 14 nM
- EC50 [2, 15]: 14 nM
- Replicon EC50 (Fold change) D168V [2, 16]: (30) fold
- EC50 [3, 17]: 10.6 nM
- EC50 [3, 18]: 10.6 nM
- Replicon EC50 (Fold change) A156T [3, 16]: (23) fold
- EC50 [4, 19]: 1.81 nM
- EC50 [4, 20]: 1.81 nM
- Replicon EC50 (Fold change) R155K [4, 16]: (4) fold
- EC50 [5, 21]: 8.55 nM
- EC50 [5, 22]: 8.55 nM
- Replicon EC50 (Fold change) D168A [5, 16]: (19) fold
- Ki ([12]; Table 1): 190 nM
- Ki ([12]; Table 3): 190 ± 13 nM
- Ki (Fold change) GT1a D168A NS3/4A Protease [10]: (26) fold
- Ki ([13]; Table 1): 7.18 nM
- Ki ([13]; Table 3): 7.18 nM
- ring closure, isolated yield ([1]; 6.9 mM): 60%
- EC50 [11, 23]: 0.46 nM
- EC50 ([11]; Huh-7, Table 4): 0.46 nM

Compound: COc1ccc2nc(C(C)C)c(O[C@@H]3C[C@H]4C(=O)N[C@]5(C(=O)NS(=O)(=O)C6(C)CC6)C[C@H]5/C=C\CCCCC[C@H](NC(=O)OC(C)(C)C)C(=O)N4C3)nc2c1 [Compound 19e, tert-Butyl ((2R,6S,13aS,14aR,16aS,Z)-2-((3-isopropyl-7-methoxyquinoxalin-2-yl)oxy)-14a-(((1-methylcyclopropyl)sulfonyl)carbamoyl)-5,16-dioxo-1,2,3,5,6,7,8,9,10,11,13a,14,14a,15,16,16a-hexadecahydrocyclopropa[e]pyrrolo[1,2-a][1,4]diazacyclopentadecin-6-yl)carbamate]
- EC50 [2, 14]: 18.1 nM
- EC50 [2, 15]: 18.1 nM
- Replicon EC50 (Fold change) D168V [2, 16]: (10) fold
- EC50 [3, 17]: 21.2 nM
- EC50 [3, 18]: 21.2 nM
- Replicon EC50 (Fold change) A156T [3, 16]: (11) fold
- EC50 [4, 19]: 4.14 nM
- EC50 [4, 20]: 4.14 nM
- Replicon EC50 (Fold change) R155K [4, 16]: (2) fold
- EC50 [5, 21]: 11.9 nM
- EC50 [5, 22]: 11.9 nM
- Replicon EC50 (Fold change) D168A [5, 16]: (6) fold
- Ki ([12]; Table 1): 211 nM
- Ki ([12]; Table 3): 211 ± 19 nM
- Ki (Fold change) GT1a D168A NS3/4A Protease [10]: (364) fold
- Ki ([13]; Table 1): 0.58 nM
- Ki ([13]; Table 3): 0.58 nM
- ring closure, isolated yield ([1]; 6.6 mM): 60%
- EC50 [11, 23]: 1.86 nM
- EC50 ([11]; Huh-7, Table 4): 1.86 nM

Compound: tert-Butyl 42R,6S,13aS,14aR,16aS,Z)-14a-((cyclopropylsulfonyl)carbamoyl)-2-((3-isopropyl-7-methoxyquinoxalin-2-yl)oxy)-5,16-dioxo-1,2,3,5,6,7,8,9,10,11,13a,14,14a,15,16,16a-hexadecahydrocyclopropa[e]pyrrolo[1,2-a][1,4]diazacyclopentadecin-6-yl)carbamate
- ring closure, isolated yield ([1]; 6.6 mM, 70.0 °C): 58%
